*1 amine or outer side, *2 acyl side, *3 side chain or, on linkers, in order; H or OH if unused. Where a SMILES comes first, the peptide text is derived from it. Bridges are numbered along the chain shown (N, C = ends). [ ]: non-standard residue; d: D form. TATA = O=C(CC[*:1])N1CN(C(=O)CC[*:2])CN(C(=O)CC[*:3])C1; Orn = NCCC[C@H](N)C(=O)O

The target of the assay is TSLP (Homo sapiens, UniProt Q969D9). Nature of the assay: Human TSLP Surface Plasmon Resonance (SPR) binding assay. The conditions noted are these: biotinylated human TSLP immobilized on streptavidin chip; 20° C.; steady-state or kinetic 1:1 fit; read-out: hTSLP SPR Kd. Set-up: The resulting construct spCD33-6×HN-TEV-hTSLP(29-159)-Avi; 6xHN tag with TEV site (N, cleaved yes); made in house; host or cells: Expi293F cells.
TSLP, sequence (Q969D9 29-159): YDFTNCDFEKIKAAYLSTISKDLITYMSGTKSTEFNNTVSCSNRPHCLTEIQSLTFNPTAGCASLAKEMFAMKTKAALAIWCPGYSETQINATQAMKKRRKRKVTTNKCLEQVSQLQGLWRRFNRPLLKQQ
What is called Kd is the constant that tells how readily two partners part at equilibrium. On to `CC(C)C[C@@H]1NC(=O)[C@H](Cc2c[nH]c3ccccc23)NC(=O)[C@H](Cc2c[nH]c3ccccc23)NC(=O)[C@H](CCC(=O)O)NC(=O)[C@H](CCC(=O)O)NC(=O)[C@@H]2CSCCC(=O)N3CN(CN(C3)C(=O)CCSC[C@@H](C(=O)N[C@@H](C)C(=O)N[C@@H](Cc3c[nH]cn3)C(=O)N3CCC[C@H]3C(N)=O)NC1=O)C(=O)CCSC[C@H](NC(=O)[C@H](C)N)C(=O)N[C@@H](CCCNC(=N)N)C(=O)N[C@@H](CC(=O)O)C(=O)N[C@@H](CC(C)C)C(=O)N[C@@H](CC(=O)O)C(=O)N1CCC[C@H]1C(=O)N[C@@H](Cc1c[nH]c3ccccc13)C(=O)N[C@@H]([C@@H](C)O)C(=O)N2` [Example 170, A-(SEQ ID NO: 128)-AHP] (H-ACRDLDPWTCEEWWLCAHP-NH2; linker 2-10-16 via TATA; N-terminus and C-terminus assumed), for which the Kd amounted to 170 nM.

Consider `CC(C)C[C@@H]1NC(=O)[C@H](Cc2c[nH]c3ccccc23)NC(=O)[C@H](Cc2c[nH]c3ccccc23)NC(=O)[C@H](CO)NC(=O)[C@H](CO)NC(=O)[C@@H]2CSCCC(=O)N3CN(CN(C3)C(=O)CCSC[C@H](NC(=O)[C@@H](NC(=O)[C@H](CC(=O)O)NC(=O)[C@H](CCCNC(=N)N)NC(=O)[C@H](CCC(N)=O)NC(=O)[C@H](Cc3ccc(O)cc3)NC(=O)[C@@H](N)CCC(=O)O)C(C)C)C(=O)N[C@@H](CCCNC(=N)N)C(=O)N[C@@H](CC(=O)O)C(=O)N[C@@H](CC(C)C)C(=O)N[C@@H](CC(=O)O)C(=O)N3CCC[C@H]3C(=O)N[C@@H](Cc3c[nH]c4ccccc34)C(=O)N[C@@H]([C@@H](C)O)C(=O)N2)C(=O)CCSC[C@@H](C(=O)N[C@@H](C)C(N)=O)NC1=O` [Example 173, EYQRDV-(SEQ ID NO: 122)-A], for which the Kd was found to be 77 nM. The value for `CC(C)C[C@@H]1NC(=O)[C@H](Cc2c[nH]c3ccccc23)NC(=O)[C@H](Cc2c[nH]c3ccccc23)NC(=O)[C@H](CO)NC(=O)[C@H](CO)NC(=O)[C@@H]2CSCCC(=O)N3CN(CN(C3)C(=O)CCSC[C@@H](C(=O)N[C@@H](CO)C(=O)N[C@@H](CCC(=O)O)C(=O)N[C@@H](CO)C(=O)N[C@H](C(=O)N[C@@H](Cc3c[nH]cn3)C(=O)N[C@H](C(=O)N[C@@H](C)C(N)=O)[C@@H](C)O)C(C)C)NC1=O)C(=O)CCSC[C@H](NC(=O)[C@H](C)N)C(=O)N[C@@H](CCCNC(=N)N)C(=O)N[C@@H](CC(=O)O)C(=O)N[C@@H](CC(C)C)C(=O)N[C@@H](CC(=O)O)C(=O)N1CCC[C@H]1C(=O)N[C@@H](Cc1c[nH]c3ccccc13)C(=O)N[C@@H]([C@@H](C)O)C(=O)N2` [Example 175, A-(SEQ ID NO: 122)-SESVHTA] was 240 nM. Take `CC(C)C[C@@H]1NC(=O)[C@H](Cc2c[nH]c3ccccc23)NC(=O)[C@H](Cc2c[nH]c3ccccc23)NC(=O)[C@H](CO)NC(=O)[C@H](CO)NC(=O)[C@@H]2CSCCC(=O)N3CN(CN(C3)C(=O)CCSC[C@@H](C(=O)N[C@@H](CCCCN)C(=O)N3CCC[C@H]3C(=O)N[C@@H](CC(=O)O)C(=O)N[C@@H](Cc3c[nH]cn3)C(=O)N[C@H](C(=O)N[C@@H](CC(=O)O)C(=O)N[C@@H](C)C(N)=O)C(C)C)NC1=O)C(=O)CCSC[C@H](NC(=O)[C@H](C)N)C(=O)N[C@@H](CCCNC(=N)N)C(=O)N[C@@H](CC(=O)O)C(=O)N[C@@H](CC(C)C)C(=O)N[C@@H](CC(=O)O)C(=O)N1CCC[C@H]1C(=O)N[C@@H](Cc1c[nH]c3ccccc13)C(=O)N[C@@H]([C@@H](C)O)C(=O)N2` [Example 177, A-(SEQ ID NO: 122)-KPDHVDA]: the Kd is 580 nM. Take `CC(C)C[C@@H]1NC(=O)[C@H](Cc2c[nH]c3ccccc23)NC(=O)[C@H](Cc2c[nH]c3ccccc23)NC(=O)[C@H]([C@@H](C)O)NC(=O)[C@H](CCC(=O)O)NC(=O)[C@@H]2CSCCC(=O)N3CN(CN(C3)C(=O)CCSC[C@H](N)C(=O)N[C@@H](CCCCN)C(=O)N[C@@H](CCC(=O)O)C(=O)N[C@@H](CC(C)C)C(=O)N[C@@H](CC(=O)O)C(=O)N3CCC[C@H]3C(=O)N[C@@H](Cc3c[nH]c4ccccc34)C(=O)N[C@@H]([C@@H](C)O)C(=O)N2)C(=O)CCSC[C@@H](C(N)=O)NC1=O` [Example 179, (SEQ ID NO: 130)] (H-CKELDPWTCETWWLC-NH2; linker 1-9-15 via TATA): the Kd was 360 nM.

Consider `CC(C)C[C@@H]1NC(=O)[C@H](Cc2c[nH]c3ccccc23)NC(=O)[C@H](Cc2c[nH]c3ccccc23)NC(=O)[C@H]([C@@H](C)O)NC(=O)[C@H](CCC(=O)O)NC(=O)[C@@H]2CSCCC(=O)N3CN(CN(C3)C(=O)CCSC[C@H](N)C(=O)N[C@@H](CCCN)C(=O)N[C@@H](CCC(=O)O)C(=O)N[C@@H](CC(C)C)C(=O)N[C@@H](CC(=O)O)C(=O)N3CCC[C@H]3C(=O)N[C@@H](Cc3c[nH]c4ccccc34)C(=O)N[C@@H]([C@@H](C)O)C(=O)N2)C(=O)CCSC[C@@H](C(N)=O)NC1=O` [Example 180, (SEQ ID NO: 131)] (H-C[Orn]ELDPWTCETWWLC-NH2; linker 1-9-15 via TATA; N-terminus and C-terminus assumed), for which the Kd was determined as 300 nM. On to `CC(C)C[C@@H]1NC(=O)[C@H](Cc2c[nH]c3ccccc23)NC(=O)[C@H](Cc2c[nH]c3ccccc23)NC(=O)[C@H]([C@@H](C)O)NC(=O)[C@H](CCC(=O)O)NC(=O)[C@@H]2CSCCC(=O)N3CN(CN(C3)C(=O)CCSC[C@H](N)C(=O)N[C@@H](CCC(N)=O)C(=O)N[C@@H](CCC(=O)O)C(=O)N[C@@H](CC(C)C)C(=O)N[C@@H](CC(=O)O)C(=O)N3CCC[C@H]3C(=O)N[C@@H](Cc3c[nH]c4ccccc34)C(=O)N[C@@H]([C@@H](C)O)C(=O)N2)C(=O)CCSC[C@@H](C(N)=O)NC1=O` [Example 181, (SEQ ID NO: 132)] (H-CQELDPWTCETWWLC-NH2; linker 1-9-15 via TATA; N-terminus and C-terminus assumed), for which the Kd is 310 nM.

Turning to `CC(C)C[C@@H]1NC(=O)[C@H](Cc2c[nH]c3ccccc23)NC(=O)[C@H](Cc2c[nH]c3ccccc23)NC(=O)[C@H]([C@@H](C)O)NC(=O)[C@H](CCC(=O)O)NC(=O)[C@@H]2CSCCC(=O)N3CN(CN(C3)C(=O)CCSC[C@H](N)C(=O)N[C@@H]([C@@H](C)O)C(=O)N[C@@H](CCC(=O)O)C(=O)N[C@@H](CC(C)C)C(=O)N[C@@H](CC(=O)O)C(=O)N3CC(F)(F)C[C@H]3C(=O)N[C@@H](Cc3c[nH]c4ccccc34)C(=O)N[C@@H]([C@@H](C)O)C(=O)N2)C(=O)CCSC[C@@H](C(N)=O)NC1=O` [Example 182, (SEQ ID NO: 133)], the Kd was 1300 nM. Take `CC(C)C[C@@H]1NC(=O)[C@H](Cc2c[nH]c3ccccc23)NC(=O)[C@H](Cc2c[nH]c3ccccc23)NC(=O)[C@H](CC(=O)O)NC(=O)[C@H](CCC(=O)O)NC(=O)[C@@H]2CSCCC(=O)N3CN(CN(C3)C(=O)CCSC[C@@H](C(=O)N[C@@H](C)C(N)=O)NC1=O)C(=O)CCSC[C@H](NC(=O)[C@H](C)N)C(=O)N[C@@H](C(C)C)C(=O)N[C@@H](CC(=O)O)C(=O)N[C@@H](CC(C)C)C(=O)N[C@@H](CC(=O)O)C(=O)N1CCC[C@H]1C(=O)N[C@@H](Cc1c[nH]c3ccccc13)C(=O)N[C@@H](CO)C(=O)N2` [Example 183, A-(SEQ ID NO: 134)-A] (H-ACVDLDPWSCEDWWLCA-NH2; linker 2-10-16 via TATA; N-terminus and C-terminus assumed): the Kd turned out to be 330 nM. In the case of `CC(C)C[C@@H]1NC(=O)[C@H](Cc2c[nH]c3ccccc23)NC(=O)[C@H](Cc2c[nH]c3ccccc23)NC(=O)[C@H]([C@@H](C)O)NC(=O)[C@H](CCC(=O)O)NC(=O)[C@@H]2CSCCC(=O)N3CN(CN(C3)C(=O)CCSC[C@H](N)C(=O)N[C@@H]([C@@H](C)O)C(=O)N[C@@H](CCC(=O)O)C(=O)N[C@@H](CC(C)C)C(=O)N[C@@H](CC(=O)O)C(=O)N3CCC[C@H]3C(=O)N[C@@H](Cc3c[nH]c4ccccc34)C(=O)N[C@@H]([C@@H](C)O)C(=O)N2)C(=O)CCSC[C@@H](C(N)=O)NC1=O` [Example 185, (SEQ ID NO: 121)], the Kd was 260 nM. For `CC(C)C[C@@H]1NC(=O)[C@H](Cc2c[nH]c3ccccc23)NC(=O)[C@H](Cc2c[nH]c3ccccc23)NC(=O)[C@H](CC(=O)O)NC(=O)[C@@H]2CCCN2C(=O)[C@@H]2CSCCC(=O)N3CN(CN(C3)C(=O)CCSC[C@H](NC(=O)[C@H](CC(C)C)NC(=O)[C@H](CC(=O)O)NC(=O)[C@@H](N)CCCNC(=N)N)C(=O)N[C@@H]([C@@H](C)O)C(=O)N[C@@H](CC(=O)O)C(=O)N[C@@H](CC(C)C)C(=O)N[C@@H](CC(=O)O)C(=O)N3CCC[C@H]3C(=O)N[C@@H](Cc3c[nH]c4ccccc34)C(=O)N[C@@H]([C@@H](C)O)C(=O)N2)C(=O)CCSC[C@@H](C(=O)N[C@@H](C)C(N)=O)NC1=O` [Example 189, RDL-(SEQ ID NO: 138)-A] (H-RDLCTDLDPWTCPDWWLCA-NH2; linker 4-12-18 via TATA; N-terminus and C-terminus assumed), the Kd worked out at 310 nM. With `CC(C)C[C@@H]1NC(=O)[C@H](Cc2c[nH]c3ccccc23)NC(=O)[C@H](Cc2c[nH]c3ccccc23)NC(=O)[C@H](CO)NC(=O)[C@H](CO)NC(=O)[C@@H]2CSCCC(=O)N3CN(CN(C3)C(=O)CCSC[C@H](NC(=O)[C@H](CCC(N)=O)NC(=O)[C@H](Cc3c[nH]cn3)NC(=O)[C@@H](NC(=O)[C@H](CC(N)=O)NC(=O)[C@@H](NC(=O)[C@@H](N)CCCNC(=N)N)C(C)C)[C@@H](C)O)C(=O)N[C@@H](CCCNC(=N)N)C(=O)N[C@@H](CC(=O)O)C(=O)N[C@@H](CC(C)C)C(=O)N[C@@H](CC(=O)O)C(=O)N3CCC[C@H]3C(=O)N[C@@H](Cc3c[nH]c4ccccc34)C(=O)N[C@@H]([C@@H](C)O)C(=O)N2)C(=O)CCSC[C@@H](C(=O)N[C@@H](C)C(N)=O)NC1=O` [Example 190, RVNTHQ-(SEQ ID NO: 122)-A], the Kd came to 81 nM.

The values above are taken from US11866518B2, “Bicyclic peptide ligands specific for TSLP” (BicycleTx Limited, priority 2020, dated 2024).
